Experimental data from ChEMBL document CHEMBL1201862, “PubChem BioAssay data set” (2004).
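Briefly, cells in 96-well plates were exposed to five compound concentrations for 48 h, and endpoints were estimated by linear interpolation. GI50 = concentration required for 50% inhibition of growth.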 Activity calls are given as the source filed them. Cut-off read from the data, not from the text of the source: active = GI50 up to about 1.1 µM and inactive = higher.

Assays:
Test in all cases: inhibition of tumour cell growth, NCI panel, 48 h
DU-145 = test system: DU-145
SN12C = test system: SN12C
T47D = test system: T47D
COLO 205 = test system: COLO 205
IGROV-1 = test system: IGROV-1
Hs-578T = test system: Hs-578T
HCC 2998 = test system: HCC 2998
HCT-15 = test system: HCT-15
TK-10 = test system: TK-10
HL-60 = test system: HL-60
786-0 = test system: 786-0
Malme-3M = test system: Malme-3M
MDA-N = test system: MDA-N
CAKI-1 = test system: CAKI-1
NCI-H23 = test system: NCI-H23
ACHN = test system: ACHN
MCF7 = test system: MCF7
BT-549 = test system: BT-549
SF-539 = test system: SF-539
NCI/ADR-RES = test system: NCI/ADR-RES

Row | SMILES | GI50 (DU-145) | GI50 (SN12C) | GI50 (T47D) | GI50 (COLO 205) | GI50 (IGROV-1) | GI50 (Hs-578T) | GI50 (HCC 2998) | GI50 (HCT-15) [µM] | GI50 (TK-10) | GI50 (HL-60) | GI50 (786-0) | GI50 (Malme-3M) | GI50 (MDA-N) | GI50 (CAKI-1) | GI50 (NCI-H23) | GI50 (ACHN) | GI50 (MCF7) | GI50 (BT-549) | GI50 (SF-539) | GI50 (NCI/ADR-RES)
1 | C=C1C(=O)O[C@@H]2C(=O)[C@@H](C)[C@@H]3C=CC(=O)[C@@]3(C)[C@@H](OC(=O)/C(C)=C\C)[C@H]12 [MULTISTATIN] | 1.57 µM (inactive) | 1.42 µM (inactive) | 0.483 µM (active) | 0.237 µM (active) | 1.48 µM (inactive) | 6.44 µM (inactive) | 1.71 µM (inactive) | 0.284 | 0.538 µM (active) | 0.132 µM (active) | 0.31 µM (active) | 0.298 µM (active) | 0.675 µM (active) | 0.264 µM (active) | 2.88 µM (inactive) | 0.212 µM (active) | 0.394 µM (active) | 0.689 µM (active) | 1.84 µM (inactive) | 2.37 µM (inactive)
2 | CCOC1CCN(C(=O)c2ccccc2)O1 (stereo not given) | > 10 µM (inactive) | > 10 µM (inactive) | > 10 µM (inactive) | > 10 µM (inactive) | > 10 µM (inactive) | > 10 µM (inactive) | > 10 µM (inactive) | > 10 | > 10 µM (inactive) | > 10 µM (inactive) | > 10 µM (inactive) | > 10 µM (inactive) | > 10 µM (inactive) | > 10 µM (inactive) | > 10 µM (inactive) | > 10 µM (inactive) | > 10 µM (inactive) | > 10 µM (inactive) | > 10 µM (inactive) | > 10 µM (inactive)
3 | Cc1nn2c(C(=O)N/N=C/c3ccccc3O)c(C)nc2s1 | > 100 µM (inactive) | 73.1 µM (inactive) | 61.5 µM (inactive) | 59.2 µM (inactive) | > 100 µM (inactive) | > 100 µM (inactive) | 55.1 µM (inactive) | 41.9 | > 100 µM (inactive) | 31.8 µM (inactive) | 47.8 µM (inactive) | > 100 µM (inactive) | > 100 µM (inactive) | > 100 µM (inactive) | > 100 µM (inactive) | 56.1 µM (inactive) | 30.8 µM (inactive) | > 100 µM (inactive) | > 100 µM (inactive) | 61.4 µM (inactive)
4 | O=C1c2ccccc2NC(c2cc(Cl)cc(Cl)c2O)N1CCc1ccccn1 (stereo not given) | 46.7 µM (inactive) | 69.8 µM (inactive) | 26.7 µM (inactive) | > 100 µM (inactive) | > 100 µM (inactive) | 55.8 µM (inactive) | 53.2 µM (inactive) | 86.3 | > 100 µM (inactive) | > 100 µM (inactive) | 60.1 µM (inactive) | 30.8 µM (inactive) | 97.9 µM (inactive) | > 100 µM (inactive) | > 100 µM (inactive) | 87.3 µM (inactive) | 61 µM (inactive) | > 100 µM (inactive) | > 100 µM (inactive) | 60.4 µM (inactive)
5 | CCN(CC)CCCNc1ccc2nc(C)n3c4ccc(O)cc4c(=O)c1c23 | 5.46 µM (inactive) | 5.15 µM (inactive) | 15.4 µM (inactive) | 5.18 µM (inactive) | 1.64 µM (inactive) | 7.08 µM (inactive) | 7.43 µM (inactive) | 3.62 | 7.16 µM (inactive) | 1.61 µM (inactive) | 1.81 µM (inactive) | 10.7 µM (inactive) | 7.53 µM (inactive) | 4.78 µM (inactive) | 1.34 µM (inactive) | 3.01 µM (inactive) | 0.863 µM (active) | 12.1 µM (inactive) | 9.38 µM (inactive) | 12.6 µM (inactive)
6 | COc1ccc(C(SC2C(O)C(CO)OC2n2ccc(=O)[nH]c2=O)(c2ccccc2)c2ccc(OC)cc2)cc1 (stereo not given) | 18.4 µM (inactive) | 14.4 µM (inactive) | 16.6 µM (inactive) | 17.7 µM (inactive) | 17.7 µM (inactive) | 20.9 µM (inactive) | 14.8 µM (inactive) | 15.5 | 25.4 µM (inactive) | 25.6 µM (inactive) | 16.3 µM (inactive) | 20.7 µM (inactive) | 9.66 µM (inactive) | 30.4 µM (inactive) | 17.7 µM (inactive) | 29 µM (inactive) | 17.1 µM (inactive) | 16.6 µM (inactive) | 22 µM (inactive) | 18.9 µM (inactive)
7 | O=C(CN1CCN(C(=O)OCc2ccccc2)CCN(CC(=O)N2CCCCC2)CCN(C(=O)OCc2ccccc2)CC1)N1CCCCC1 | 21.4 µM (inactive) | 11.6 µM (inactive) | 17 µM (inactive) | 11.9 µM (inactive) | 10.3 µM (inactive) | 14.3 µM (inactive) | 11.2 µM (inactive) | 17.9 | 11.5 µM (inactive) | 10.6 µM (inactive) | 13.8 µM (inactive) | 8.38 µM (inactive) | 14.8 µM (inactive) | 5.04 µM (inactive) | 20.7 µM (inactive) | 18.1 µM (inactive) | 17.1 µM (inactive) | 23.1 µM (inactive) | 14.6 µM (inactive) | 10.9 µM (inactive)
8 | CN(C)CCNc1ccc2ncn3c4ccc(O)cc4c(=O)c1c23 | 0.315 µM (active) | 0.562 µM (active) | 10.2 µM (inactive) | 0.698 µM (active) | 1.09 µM (active) | 1.18 µM (inactive) | 2.12 µM (inactive) | 0.715 | 2.66 µM (inactive) | 0.647 µM (active) | 0.612 µM (active) | 2.64 µM (inactive) | 2.88 µM (inactive) | 0.224 µM (active) | 0.614 µM (active) | 0.158 µM (active) | 0.0832 µM (active) | 14.2 µM (inactive) | 0.46 µM (active) | 3 µM (inactive)
9 | NC(=O)NC(=O)CCC(NS(=O)(=O)c1ccccc1)C(=O)NC(N)=O (stereo not given) | > 100 µM (inactive) | > 100 µM (inactive) | > 100 µM (inactive) | > 100 µM (inactive) | > 100 µM (inactive) | > 100 µM (inactive) | > 100 µM (inactive) | > 100 | > 100 µM (inactive) | > 100 µM (inactive) | > 100 µM (inactive) | > 100 µM (inactive) | > 100 µM (inactive) | > 100 µM (inactive) | > 100 µM (inactive) | > 100 µM (inactive) | > 100 µM (inactive) | > 100 µM (inactive) | > 100 µM (inactive) | > 100 µM (inactive)
10 | N#C/C=C(/NC(=O)Nc1ccccc1)N1CCCC1 | > 50.9 µM (inactive) | > 86.3 µM (inactive) | > 85.1 µM (inactive) | > 55 µM (inactive) | > 55.8 µM (inactive) | > 86.1 µM (inactive) | > 30.3 µM (inactive) | > 56.2 | > 36.2 µM (inactive) | > 100 µM (inactive) | 31.9 µM (inactive) | > 45 µM (inactive) | > 100 µM (inactive) | > 45.9 µM (inactive) | > 49.3 µM (inactive) | > 38.7 µM (inactive) | > 33.1 µM (inactive) | > 67.5 µM (inactive) | > 47.4 µM (inactive) | > 39.9 µM (inactive)
11 | CCN(CC)Cc1cc(/N=N\c2c(O)ccc3c(/N=N\c4ccc(O)c(CN(CC)CC)c4)c(O)ccc23)ccc1O | 2.65 µM (inactive) | 3.92 µM (inactive) | 10.3 µM (inactive) | 1.61 µM (inactive) | 2.99 µM (inactive) | 3.73 µM (inactive) | 1.71 µM (inactive) | 1.68 | 6.89 µM (inactive) | 1.8 µM (inactive) | 1.87 µM (inactive) | 4.5 µM (inactive) | 4.8 µM (inactive) | 2.1 µM (inactive) | 3.56 µM (inactive) | 2.49 µM (inactive) | 2.39 µM (inactive) | 4.92 µM (inactive) | 2.73 µM (inactive) | 4.57 µM (inactive)
12 | N=C(N)NCCNC(=N)N | > 100 µM (inactive) | 85.1 µM (inactive) | 84.3 µM (inactive) | > 100 µM (inactive) | > 100 µM (inactive) | > 100 µM (inactive) | > 100 µM (inactive) | > 100 | > 100 µM (inactive) | > 100 µM (inactive) | > 100 µM (inactive) | 37.5 µM (inactive) | > 100 µM (inactive) | > 100 µM (inactive) | > 100 µM (inactive) | > 100 µM (inactive) | > 100 µM (inactive) | > 100 µM (inactive) | > 100 µM (inactive) | > 100 µM (inactive)
13 | COC(=O)c1c2c(cc3c1CC1(Cc4ccccc4C1)C3)CCC2 | 47.4 µM (inactive) | 16.9 µM (inactive) | 15.8 µM (inactive) | 16.6 µM (inactive) | 22.5 µM (inactive) | 22.9 µM (inactive) | 33.1 µM (inactive) | 23 | 61.8 µM (inactive) | 17.3 µM (inactive) | 27.9 µM (inactive) | 20.2 µM (inactive) | 6.27 µM (inactive) | 19.8 µM (inactive) | 31.3 µM (inactive) | 23.8 µM (inactive) | 6.38 µM (inactive) | 20.9 µM (inactive) | 39.5 µM (inactive) | 22.2 µM (inactive)
14 | NC1=C(Cl)C(=O)c2c(O)ccc(O)c2C1=O | 2.2 µM (inactive) | 3.28 µM (inactive) | 7.24 µM (inactive) | 1.69 µM (inactive) | 5.83 µM (inactive) | 8.3 µM (inactive) | 2.84 µM (inactive) | 3.37 | 15.2 µM (inactive) | 2.55 µM (inactive) | 8.93 µM (inactive) | 0.279 µM (active) | 1.77 µM (inactive) | 16.5 µM (inactive) | 2.05 µM (inactive) | 4.88 µM (inactive) | 1.55 µM (inactive) | 1.93 µM (inactive) | 2.84 µM (inactive) | 3.61 µM (inactive)
